Activity calls are given as the source filed them.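 Rule for the calls: active = caspase luminescence falls with dose and the half-maximal concentration AC50 from the fitted curve is at or below a set limit; inconclusive = flat fit at 30 to 70% signal loss, or invalid fit; inactive = AC50 above the limit, or signal rises instead.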
test system: INS-1E cytokine-induced caspase-3/7, Caspase-Glo luminescence, 48 h; test: inhibitors of cytokine-induced caspase-3/7 activity, dose response, orthogonal assay for beta-cell apoptosis protection project, INS-1E rat cells, luminescence (AID 463206)

SMILES	AC50
CC(C)[C@H]1C(=O)O[C@H](C(C)C)C(=O)N(C)[C@@H](C(C)C)C(=O)O[C@H](C(C)C)C(=O)N(C)[C@@H](C(C)C)C(=O)O[C@H](C(C)C)C(=O)N1C	> 26 µM (inactive)
COc1nc(Nc2nc3ccccc3c(=O)[nH]2)nc2ccc(C)cc12	> 26 µM (inactive)
CN1CCN(C2=C(NS(=O)(=O)c3cccs3)C(=O)c3ccccc3C2=O)CC1	> 26 µM (inactive)
CCS(=O)(=O)c1ncc(Cl)c(C(=O)Nc2ccc(S(=O)(=O)N3CCC(C)CC3)cc2)n1	> 26 µM (inactive)
Cc1cc(O)c2c(c1)C(=O)C13C(=C2O)C(=O)[C@H]2[C@@H](O)[C@@H]1[C@H]1[C@H](O)[C@@H]3C(=O)C3=C(O)c4c(O)cc(C)cc4C(=O)C312 (stereo partly specified)	21.6 µM
Cc1cccc(NC(=O)Cn2c(/C=C/c3ccccc3)nc3ccccc32)c1	> 26 µM (inactive)
CC(C)c1ccc2c(c1)C(N1CCNCC1)Cc1ccc(F)cc1S2 (stereo unspecified)	> 26 µM (inactive)
COc1ccc(OC)c(NC(=O)CSc2nnc(-c3cccnc3)s2)c1	> 26 µM (inactive)
CCc1ccc2[nH]c3nc(N/N=C/c4ccc(O)cc4O)nnc3c2c1	> 12 µM (inactive)
CCN(CC)CCOC(=O)c1ccc(N/C=C(/C#N)c2nc(-c3ccc4c(c3)OCO4)cs2)cc1	> 26 µM (inactive)
O=C(COc1ccccc1-c1ccccc1)N/N=C/c1ccc2ccccc2c1	> 12 µM (inactive)
Cc1ccc(-c2nn(-c3ccccc3)cc2/C=N/NC(=O)c2ccc(Br)o2)cc1	> 26 µM (inactive)
CC(=O)N(C)C1=C(N2CCOCC2)C(=O)c2ccccc2C1=O	> 26 µM (inactive)
CC1=C(C)/C(=N\OS(=O)(=O)c2ccc(C)cc2)C=CC1=O	> 26 µM (inactive)
CC(=O)OC1COC(OC2C(O)C(C)OC(OC3C(OC4CCC5(C)C(CCC6(C)C5CC=C5C7CC(C)(C)CCC7(C(=O)O)CCC56C)C4(C)CO)OCC(O)C3O)C2O)C(O)C1OC(C)=O (stereo unspecified)	> 26 µM (inactive)
COc1ccc(-[n+]2c(-c3ccccc3)cc(-c3ccccc3)cc2-c2ccccc2)cc1	> 26 µM (inactive)
COc1ccccc1NS(=O)(=O)c1cccc(NC(=O)c2[nH]c(C)c(C(C)=O)c2C)c1	> 26 µM (inactive)
COc1ccc2c(c1)C(=O)[C@@H](O)[C@H](c1ccc(OC)c(Br)c1)O2	> 26 µM (inactive)
C=C(C)C(=O)OCC(O)COc1ccc(C(C)(C)c2ccc(OCC(O)COC(=O)C(=C)C)cc2)cc1 (stereo unspecified)	> 26 µM (inactive)
COc1cccc(N=Nc2ccc3cccnc3c2O)c1	> 26 µM (inactive)
c1ccc2c(c1)ncn2CCCOc1ccc2c(c1)CCC2	> 26 µM (inactive)
CN1C2CCC1/C(=C/c1ccccn1)C(=O)/C2=C\c1ccccn1	> 26 µM (inactive)

SMILES	AC50
COC(=O)c1cccc(NC(=O)Nc2ccc(Cl)c(Cl)c2)c1	> 26 µM (inactive)
C=CC[n+]1c(-c2ccc(OCC)cc2)csc1NNC(=O)Nc1ccccc1	> 26 µM (inactive)
O=C(NC1(Cc2ccccc2)CCN(CCCc2ccccc2)C1=O)c1ccccc1 (stereo unspecified)	> 26 µM (inactive)
Cc1ccnc(NC(=O)c2ccc([N+](=O)[O-])s2)c1	> 26 µM (inactive)
Cc1cc(Br)cc(/C=N/NC(=O)c2ccc3c(c2)OCO3)c1O	> 26 µM (inactive)
CCc1ccc(OC)c(S(=O)(=O)Nc2ccc(Cc3ccncc3)cc2)c1	> 26 µM (inactive)
Cc1ccc(NC2=C/C(=N/S(=O)(=O)c3cccs3)c3ccccc3C2=O)cc1	> 26 µM (inactive)
CC(C)c1ccc(COc2ccc(C(=O)N3CCOCC3)cc2)cc1	> 26 µM (inactive)
CCC(C)Sc1cccc(-c2nc3ccc(C)cn3c2NCc2ccccc2)c1 (stereo unspecified)	> 26 µM (inactive)
O=C1C=C(Nc2ccc(F)cc2)c2ccccc2C1=O	> 26 µM (inactive)
CCc1ccc(-n2cc(-c3ccc(F)cc3)[n+]3c2SCCC3)cc1	> 26 µM (inactive)
C#CCOCCOCCOCCNc1nc(N2CCN(C(=O)CCCCCCCCCCNC(=O)[C@H](CCCCN)n3cc(CCO)nn3)CC2)nc(N2CCN(C(=O)CCCCCCCCCCNC(=O)[C@H](CCCCN)n3cc(C[C@@H](C)CC)nn3)CC2)n1	> 26 µM (inactive)
CCCCCCc1cc2cc(-c3nnc(-c4ccccc4O)o3)c(=O)oc2cc1O	> 26 µM (inactive)
C#CCOCCOCCOCCNc1nc(N2CCN(C(=O)CCCCCCCCCCNC(=O)[C@H]([C@@H](C)CC)n3cc(CCCCN=C(N)N)nn3)CC2)nc(N2CCN(C(=O)CCCCCCCCCCNC(=O)[C@H](CCCCN)n3cc(C)nn3)CC2)n1	> 26 µM (inactive)
COc1cc(Br)cc(/C=N/NC(=O)Cc2ccc(C(F)(F)F)cc2[N+](=O)[O-])c1O	> 26 µM (inactive)
O=C(NCC#CCSc1nnc(-c2cccc3ccccc23)o1)c1cccs1	> 26 µM (inactive)
CNc1ccc2oc(C[C@H]3O[C@@]4(CC[C@H]3C)O[C@H]([C@H](C)C(=O)c3ccc[nH]3)[C@H](C)C[C@H]4C)nc2c1C(=O)O	> 26 µM (inactive)
Cc1ccc(S(=O)(=O)/N=C2/C=C(Sc3ncn[nH]3)C(=O)c3ccccc32)cc1	> 26 µM (inactive)
COc1cc2c(cc1OC)C(NC(=O)C(F)(F)F)CNC2=O (stereo unspecified)	> 26 µM (inactive)
Cc1ccccc1C(=O)Nc1cccc(C(=O)N/N=C/c2cc(Cl)cc([N+](=O)[O-])c2O)c1	> 26 µM (inactive)
CNc1nc(N)c([N+](=O)[O-])c(Nc2cccc(F)c2)n1	> 26 µM (inactive)
c1ccc(CNc2nc(-c3ccccn3)nc3ccccc23)cc1	> 26 µM (inactive)

SMILES	AC50
Cc1sc2ncnc(N/N=C/c3ccccc3O)c2c1C	> 26 µM (inactive)
COC(=O)C1=C(c2ccc(OCc3ccccc3)cc2)C[C@@H]2CC[C@H]1N2C(=O)NC1CCN(Cc2ccccc2)CC1	> 26 µM (inactive)
C#CCOCCOCCOCCNc1nc(N2CCN(C(=O)CCCCCCCCCCNC(=O)Cn3cc(C[C@@H](C)O)nn3)CC2)nc(N2CCN(C(=O)CCCCCCCCCCNC(=O)[C@@H]([C@H](C)CC)n3cc(CCCCCN)nn3)CC2)n1	> 26 µM (inactive)
O=C(Nc1ccc(Br)c(C(F)(F)F)c1)c1ccc(C(F)(F)F)cc1	> 26 µM (inactive)
C=C(C=O)C[C@@H]1C[C@H](O)C2OC3C[C@]4(C)OC5/C=C\CC6OC7C(CC=CCC6OC5CCCC4OC3CC2O1)OC1CC2OC3CC(=O)OC3C[C@@H](C)C[C@@]2(C)OC1C[C@@H]7C (stereo partly specified)	> 26 µM (inactive)
NC1=NC[C@H](Cc2ccccc2)N1CCCCC1CCCCC1	> 26 µM (inactive)
CC1Cc2ccccc2N1C(=O)CSc1nc2ccccc2o1 (stereo unspecified)	> 26 µM (inactive)
O=C(NCc1cccnc1)c1ccc(-c2cc3ccccc3oc2=O)cc1	> 26 µM (inactive)
C/C(=N\NC(=O)C(c1ccccc1)c1ccccc1)c1ccccn1	> 26 µM (inactive)
Cc1nc(Nc2ccc(Cl)c(Cl)c2)sc1C(=O)Nc1ccccc1	> 26 µM (inactive)
CCc1ccc(-n2c(C)cc(/C=N/NC(=O)c3ccncc3)c2C)cc1	> 26 µM (inactive)
Cc1[nH]nc2nc(SCC(=O)NCCC3=CCCCC3)n(-c3ccc(Br)cc3)c(=N)c12	> 26 µM (inactive)
O=S1(=O)CCN(Cc2csc(-c3cccs3)n2)CC1	> 26 µM (inactive)
COc1cc(/C=C2\CC(C(C)(C)C)C/C(=C\c3cc(OC)c(OC)c(OC)c3)C2=O)cc(OC)c1OC (stereo unspecified)	> 26 µM (inactive)
CCOc1ccc(OCC)c(S(=O)(=O)NCCOC23CC4CC(CC(C4)C2)C3)c1	15.9 µM
O=S(=O)([N-]c1nc2ccccc2nc1-[n+]1ccc(Cc2ccccc2)cc1)c1ccc(Br)s1	> 26 µM (inactive)
CCn1c(=O)c(C(=O)Nc2ccccn2)c(O)c2ccccc21	> 26 µM (inactive)
O=C(CSC1=NCCS1)Nc1ccnc2ccccc12	> 26 µM (inactive)
CC1CCC(C(C)C)C(OC(=O)Cn2c(COc3ccccc3)[n+](C)c3ccccc32)C1 (stereo unspecified)	> 26 µM (inactive)
O=C(Nc1nc(-c2ccccn2)cs1)c1ccc([N+](=O)[O-])o1	> 26 µM (inactive)
CCCCCn1c(=O)c(C(=O)NCc2ccccc2Cl)c(O)c2ccccc21	> 26 µM (inactive)
Cc1ccc(C)c(NC(=O)/C(C#N)=C/c2cn(CC(=O)NCc3ccco3)c3ccccc23)c1	> 26 µM (inactive)

SMILES	AC50
Cc1cccc(NC2=C/C(=N/S(=O)(=O)c3cccs3)c3ccccc3C2=O)c1	> 26 µM (inactive)
CCCCn1c(NS(=O)(=O)c2ccccc2)c(S(=O)(=O)c2ccc(C)cc2)c2nc3ccccc3nc21	> 12 µM (inactive)
O=S(=O)(C/C(=C/CO)S(=O)(=O)c1ccccc1)c1ccccc1	4.21 µM
FC(F)Sc1ccc(N=C2NN=C(c3ccc4c(c3)OCCO4)CS2)cc1	> 26 µM (inactive)
Cc1cc(Nc2cccc(Cl)c2)nc(NCc2ccccc2)n1	> 26 µM (inactive)
N#C/C(=N\Nc1ccc(Cl)cc1)C(=O)c1ccccc1	> 26 µM (inactive)
N#Cc1ccc(NC(=O)Nc2ccc(Cl)cc2)cc1	> 26 µM (inactive)
Cc1cccc(C)c1NC(=O)CNC(=O)c1c(C)nn(C)c1Cl	> 26 µM (inactive)
O=C(N/N=C\c1ccc([N+](=O)[O-])s1)c1cncc(Br)c1	> 26 µM (inactive)
Cc1nnsc1C(=O)N/N=C/c1ccc2ccccc2c1O	> 26 µM (inactive)
CCCC12C(=O)C(C)(C(c3ccccc3)=C1c1ccccc1)C1C(=O)N(c3ccc(C)cc3)C(=O)C12 (stereo unspecified)	> 26 µM (inactive)
NC(=O)c1ccc(N2CCN(S(=O)(=O)c3cccs3)CC2)c([N+](=O)[O-])c1	> 26 µM (inactive)
COc1ccc(Cc2nnc(N/N=C/c3ccc(O)cc3)[nH]c2=O)cc1OC	> 26 µM (inactive)
O=[N+]([O-])c1ccc(Sc2cccc3cccnc23)c([N+](=O)[O-])c1	> 26 µM (inactive)
N=c1ccn(Cc2ccc(Cl)cc2Cl)cc1	> 26 µM (inactive)
COc1ccc(Cn2c(-c3ccc(C)cc3)c[n+]3ccccc23)cc1	> 26 µM (inactive)
CCOc1ccc(-n2c(=O)[nH]cc(C(=O)Nc3ccc(OC)c(OC)c3)c2=O)cc1	> 26 µM (inactive)
O=C(Nc1ccc(OCC(=O)N2CCC(Cc3ccccc3)CC2)cc1)c1ccco1	> 26 µM (inactive)
O=C1C(=O)c2c(C(=O)c3ccccc3)coc2-c2ccccc21	> 26 µM (inactive)
Cc1cc(-c2ccccc2)n(-c2cc(N/N=C/c3ccccc3O)ncn2)n1	> 26 µM (inactive)

— PubChem BioAssay AID463206 (Broad Institute, 2010)
